Data: patent US11278525B1, “Further molecules, compositions and methods for modulation of SIRT6” (SirTLab Corporation, priority 2017, dated 2022)

Molecular target: SIRT6 (Homo sapiens, UniProt Q8N6T7)
Assay: SIRT6 enzymatic activity assay with fluorophore (AMC)-labeled Lysin-myristoylated histone H3 peptide (de-myristoylation, trypsin release)
Format: biochemical
Design: six-histidine tag; made in house; host or cells: Escherichia coli BL21
Details: for % activity Max. conc. 100 uM: compound 100 uM; for % activity Max. conc. 100 uM / % activity 20 uM: percentage of signal increase relative to control wells, Tables 1-2; for % Activity: amount tested 20 uM, Example 5, Table 9; for % activity 20 uM: compound 20 uM
Experimental: Human recombinant SIRT6 (sequence identifier: CAG33481.1; GI:4814651) was expressed in large scale in Escherichia coli strain BL21 as a six-histidine-tagged protein, after transformation of the expression plasmid pET28-SIRT6. The SIRT6 enzyme was purified from the bacteria culture broth in a two-step strategy. The first purification step was carried out by cation exchange chromatography on a HiTrap CM-Sepharose column (GE Healthcare) using an FPLC system. The second purification step was performed by immobilized metal ion affinity chromatography (IMAC) using a cobalt affinity column (Clontech).
The enzymatic activity assay is carried out in 96 or 384-well microplates using the purified recombinant SIRT6 and a fluorophore-labeled peptide substrate: 7-amino-4-methylcoumarin (AMC) that is quenched through conjugation to the C-terminal end of a Lysin-myristoylated histone H3 peptide. The activity assay procedure requires two steps, both performed in the same microplate. In the first step, the substrate is incubated with the purified SIRT6 protein along with the co-substrate nicotinamide adenine dinucleotide (NAD+). Upon de-myristoylation, the liberated ε-amino group of the lysine becomes a trypsin substrate. Treatment with trypsin in the second step releases the fluorophore resulting in an increase in fluorescence. Fluorescence intensity is measured using a fluorescent plate reader (excitation and emission at 370 nm and 450 nm, respectively). The fluorescence signal is directly proportional to SIRT6 enzymatic activity.
In the primary screening, compounds from a library (ChemDiv Inc.) were tested at a single concentration of 20 micromolar for their potential to modulate SIRT6 enzymatic activity. The assay was carried out in 384-well black well plates and all liquid handling was done using a robotic liquid handler. Purified recombinant SIRT6 (1 micromolar) was pre-incubated with each compound (or DMSO in control wells) for 15 minutes at room temperature. The first stage of the assay was initiated by adding a ‘substrate solution’ containing the myristoylated histone H3 peptide and NAD+(for final concentrations of 25 micromolar and 20 micromolar, respectively). After one hour incubation at 37° C., a Trypsin solution (6 mg/mL) was added for 30 minutes at room temperature. Fluorescence intensity was measured using a fluorescent plate reader (Tecan) with excitation at 370 nm and emission at 450 nm. The effect of each tested compound was evaluated by the change in the fluorescence intensity compared to control wells. […] To validate the primary screening results, each of the primary “hits” was re-tested, first at concentration of 20 micromolar in duplicates and later at a serial dilution ranging from 100 to 0.2 micromolar in triplicates.
Results of Assay—The results of the assay are given below in Tables 1-3.
Additional molecules were tested according to the methods and materials of Example 1. The amount tested was 20 uM for each molecule.

SIRT6, sequence (Q8N6T7 whole entry): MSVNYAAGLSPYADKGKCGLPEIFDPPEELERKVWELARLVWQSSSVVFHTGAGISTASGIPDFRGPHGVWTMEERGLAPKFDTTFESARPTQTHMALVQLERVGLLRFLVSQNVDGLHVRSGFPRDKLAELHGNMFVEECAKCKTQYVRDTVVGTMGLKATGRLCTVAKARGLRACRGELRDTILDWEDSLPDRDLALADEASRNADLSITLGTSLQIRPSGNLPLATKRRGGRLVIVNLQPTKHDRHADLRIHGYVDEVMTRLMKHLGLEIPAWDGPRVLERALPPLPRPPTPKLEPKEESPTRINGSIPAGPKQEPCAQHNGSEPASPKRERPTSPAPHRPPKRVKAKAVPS

| SMILES | % activity Max. conc. 100 uM | % Activity | % activity 20 uM |
| --- | --- | --- | --- |
| C=C1Cc2ccc(C)cc2C2=C1C(c1ccc(F)cc1)=C(NCCOC)C2 [F025-0094] | 246% | – | – |
| C=C(Cc1ccc2c(c1)C(C)=CC(C)(C)N2)Cc1cccc2ccccc12 [4477-0762] | 56% | – | – |
| Cc1ccc(NC(=O)c2nnc(-c3ccc(NC(=O)c4cccs4)cc3)s2)cc1 [F498-0132] | 16% | – | – |
| CCS(=O)(=O)c1nc2ccccc2n1CC(=O)Nc1ccccc1C(=O)OC [7398-1618] | – | 156% | – |
| CCOc1ccc(NC(=O)c2sc3nc(C)nc(N(C)c4ccc(C(C)C)cc4)c3c2C)cc1 [K937-0320] | 54% | – | 32% |
| CCNC(=O)N1CCc2c(sc3ncnc(NCC)c23)C1 [S324-0342] | – | 30% | – |
| N#Cc1cccc(-c2cn3c(n2)N(C(=O)c2ccncc2)CCC3)c1 [P950-0537] | 45% | – | – |
| CCOC(=O)C1CCCN(S(=O)(=O)c2ccc(-c3ccc(N4CCOCC4)nn3)s2)C1 (centres unmarked) [K906-5001] | 52% | – | 52% |
| CCC(=O)Nc1ccc(-c2cc(C(=O)NCCCN3CCCCCC3)c3ccccc3n2)cc1 [L036-0162] | 92% | – | 62% |
| C=C1Nc2nc(OC(C)=O)c(C)c(C)c2S1 [8018-4551] | 197% | – | – |
| CC(C)Cn1c(=O)c(-c2ccc(C(=O)N3CCN(c4ccccc4)CC3)cc2)nc2ccccc21 [M049-1557] | 56% | – | 51% |
| O=C(C1=CC=CC1)n1nc(-c2ccccc2)nc1NCc1ccco1 [6855-0211] | – | 77% | – |
| CN1CCC(NC(=O)C2CCN(c3nc4ccc(-c5ccccc5)nc4s3)CC2)CC1 [T387-0726] | – | 22% | – |
| C=C(OC(C)CC)C1=C(C)NC2=C(C(=C)C(C(=C)OC)C(C)C2)C1c1ccc(N(CC)CC)cc1 (centres unmarked) [C142-0098] | 61% | – | – |
| O=C(c1ccc(-c2ccc(N3CCCCC3)nc2)cc1)N1CCCC1 [M715-0156] | 75% | – | – |
| O=C(CSc1nc2ncccc2n2cccc12)NCc1ccco1 [G117-0491] | – | 88% | – |
| C=C1Cc2c(cccc2CC)C=C1c1csc(NC(=O)CCC(=O)NCCCN2CCC(C)CC2)n1 [K232-1782] | 35% | – | 42% |
| CN(C)C(=O)c1ccc(-c2ccc(N3CCCCC3)nc2)cc1 [M715-0112] | 54% | – | 40% |
| Cc1ccc(Nc2nc(C)c(C(=O)Nc3cccc(C(C)C)c3)s2)cc1 [M830-6572] | 11% | – | – |
| C=C(CS)Nc1ccc(CCCCC)cc1 [8008-0525] | 48% | – | – |
| O=C(C1CCN(c2nc3ccc(-c4cncnc4)nc3s2)CC1)N1CCCC1 [T387-0947] | – | 40% | – |
| Cc1cc(Nc2ccc(NC(=O)Nc3ccc4c(c3)CCCO4)cc2)nc(NC2CCCCC2)n1 [D577-0290] | 22% | – | – |

| SMILES | % activity Max. conc. 100 uM | % Activity | % activity 20 uM |
| --- | --- | --- | --- |
| CNC(=O)N1CCc2c(sc3ncnc(NCCCOC)c23)C1 [S324-0365] | – | 60% | – |
| CC(C)(C)c1ccc(C(=O)Nc2ccc3nnc(C4CCC4)n3c2)cc1 [M723-1403] | 87% | – | – |
| Cc1ccccc1CSc1ncc(Sc2ccccc2)c(C(=O)NCc2ccccc2)n1 [D506-0127] | 65% | – | – |
| Cc1nc2sc(-c3nc4ccccc4[nH]3)c(N)c2c(C)c1Cl [8012-5593] | 59% | – | – |
| Cc1cc(C)c2c(N)c(-c3nnc(-c4ccccc4)o3)sc2n1 [8018-7776] | – | 42% | – |
| CN(C)CCNC(=O)C1CCN(c2nc3ccc(-c4cccnc4)nc3s2)CC1 [T387-1019] | – | 31% | – |
| COc1cccc2sc(N(CCCN(C)C)C(=O)CCS(=O)(=O)c3ccccc3)nc12 [E677-1143] | – | 111% | – |
| CC[C@H]1O[C@@H](Cc2ccc3c(c2C)CC(=O)C(C)=C3C)[C@H](C)[C@@H](O)[C@H]1C [D715-0292] | 56% | – | – |
| CCN(CC)CCN(C(=O)CCOc1ccccc1)c1nc2c(F)cccc2s1 [E676-4120] | – | 60% | – |
| CCCC1(CO)CCCN1C(=O)c1ccc2cc[nH]c2c1 (centres unmarked) [P933-1294] | 53% | – | – |
| C=C(Cn1c(C)cc(C)c(C2=NC(c3ccccc3)=NC2)c1=O)NC1CCCCC1 [G744-0080] | 221% | – | 53% |
| CCN1CCCC1CNC(=O)C1CCN(c2cc(C)nc3c(-c4ccc(Cl)cc4)c(C)nn23)CC1 (centres unmarked) [C535-0969] | 29% | – | – |
| C=C(CN1C(=C)C(c2nc(-c3ccccc3)no2)=C(C)C=C1C)NCCc1ccc(CC)c(CC)c1 [G744-0071] | 73% | – | – |
| O=C(Nc1ccc2nncn2c1)c1cccc(Cl)c1 [M723-0069] | 51% | – | – |
| CN(C)CCCNC(=O)C1CCN(c2nc3ccc(-c4ccccc4)nc3s2)CC1 [T387-0668] | – | 51% | – |
| CN(C)CCN(C(=O)CCS(=O)(=O)c1ccccc1)c1nc2c(Cl)cccc2s1 [E676-1524] | – | 80% | – |
| COc1ccc(C)c2sc(N(CCN(C)C)C(=O)CCS(=O)(=O)c3ccccc3)nc12 [E676-2540] | – | 59% | – |
| CC(=O)Nc1ccc(-c2cc(C(=O)NCCN3CCN(C)CC3)c3cc(C)ccc3n2)cc1 [L036-2289] | 119% | – | 96% |
| COC(=O)c1ccccc1NC(=O)Cn1c(S(=O)(=O)Cc2ccccc2)nc2ccccc21 [7398-1534] | – | 27% | – |
| CN(C)CCCN(C(=O)CCS(=O)(=O)c1ccccc1)c1nc2c(F)cccc2s1 [E677-1397] | – | 95% | – |
| Cc1nc(-c2cccc(C(F)(F)F)c2)c(N)c(N(C)C2CCN(C)CC2)n1 [V030-4109] | 255% | – | – |
| C=S(=C)(c1cc(Cl)ccc1Cl)n1c(/C=C/c2ccc(SC)cc2)nc2ccccc21 [C381-0232] | 36% | – | – |

Other lines, results leading:

| % activity Max. conc. 100 uM | % Activity | % activity 20 uM | SMILES |
| --- | --- | --- | --- |
| – | 237% | – | Cc1c(C)c2ccc(OC(=O)C3CCCCC3)c(C)c2oc1=O [Y040-1862] |
| – | 105% | – | CC(=O)Oc1ccc2c3c(c(=O)oc2c1C)CCCC3 [3330-4541] |
| – | 21% | – | CCCc1cc2c(=O)c(-c3ccc4c(c3)OCO4)coc2cc1OC(C)=O [2188-3841] |
| – | 80% | – | CCOC(=O)CCc1c(C)c2ccc(OC(=O)c3cccc(OC)c3)c(C)c2oc1=O [Y041-1765] |
| – | 61% | – | Cc1ccccc1C(=O)Oc1ccc2c3c(c(=O)oc2c1)CCC3 [2712-4063] |
| – | 27% | – | CC(=O)Oc1ccc(C(=O)Nc2nc3c(C)cc(C)cc3s2)cc1 [3659-2007] |
| – | 24% | – | COc1cc(OC)cc(C(=O)Nc2nc3c(cc4c5c(cccc53)CC4)s2)c1 [3343-0231] |
| – | 21% | – | Cc1c(Cc2ccccc2)c(=O)oc2cc(OCc3c(Cl)cccc3Cl)ccc12 [Y040-7747] |
| – | 137% | – | CC(=O)Oc1ccc2c(C)c(Cc3ccccc3)c(=O)oc2c1C [2259-4062] |
| – | 485% | – | COc1ccc(C(=O)Oc2ccc3c4c(c(=O)oc3c2)CCCC4)cc1 [Y040-8182] |
| 113% | – | – | C=C1Cc2cc(C)cc(CC(=O)[C@@H](NS(=C)(=C)c3ccc(C)cc3)[C@H](C)CC)c2C2=C1CCC2 [Y040-3625] |
| – | 95% | – | COc1cc(C(=O)Oc2ccc3c4c(c(=O)oc3c2)CCCC4)cc(OC)c1OC [Y040-2478] |
| 75% | – | – | O=c1cc(O)c2sc3nc4c(cc3c2[nH]1)CCCCC4 [8018-3339] |
| – | 33% | – | CCCCCCc1c(C)c2ccc(OC(C)=O)c(C)c2oc1=O [Y040-4544] |
| – | 529% | – | CCOC(=O)CCc1c(C)c2ccc(OC(=O)C3CCCCC3)c(C)c2oc1=O [Y04-4165] |
| – | 21% | – | CCCCCCc1c(C)c2cc3c(-c4ccc(F)cc4)coc3c(C)c2oc1=O [Y041-6500] |
| – | 140% | – | COc1ccc(C(=O)Oc2ccc3c(C)c(Cc4ccccc4)c(=O)oc3c2)cc1 [Y040-2026] |
| – | 145% | – | Cc1c(Cc2ccccc2)c(=O)oc2c(C)c(OC(=O)C3CCCCC3)ccc12 [Y040-7709] |
| – | 168% | – | CCOc1ccccc1C(=O)Oc1ccc2c3c(c(=O)oc2c1)CCCC3 [Y040-4190] |
| – | 117% | – | CCC(=O)Nc1nc2c(OC)cc(NC(=O)c3ccccc3OC)cc2s1 [F259-0462] |
| – | 52% | – | COc1cc(C(=O)Oc2ccc3c4c(c(=O)oc3c2)CCC4)cc(OC)c1OC [2712-4061] |
| – | 53% | – | Cc1ccc(C(=O)Oc2ccc3c4c(c(=O)oc3c2C)CCC4)cc1 [Y040-4193] |
